The supplement of paper PMC11061612

How the values were obtained:
Assay in all cases: Bliss excess, mean over the matrix (fraction); higher = more synergy
[1] = test system: NALM-6 (B-Lymphoblastic Leukemia)
How it was run: (§1)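 After 24 hours at 37°C and 5% CO2 in 1536-well plates, cells in DMEM/F12 or RPMI plus 10% FBS received two-drug dose matrices for 72 hours. Viability came from CellTiter-Glo 2.0 luminescence and was scaled as inhibition, anchored at 0 by vehicle wells and at 1 by blank wells. Combination Emax is taken as the second-highest inhibition in the matrix, and Bliss excess as the observed combination effect less EA + EB − EA·EB, with EA and EB the single-agent effects.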

[2] = test system: EM-2 (Chronic Myelogenous Leukemia)
How it was run: as §1

[3] = test system: LS-513 (Colorectal Carcinoma)
How it was run: as §1

[4] = test system: HPAC (Pancreatic Carcinoma)
How it was run: as §1

[5] = test system: NCI-H1781 (Lung Adenocarcinoma)
How it was run: as §1

[6] = test system: LU-99A (Non-Small Cell Lung Carcinoma)
How it was run: as §1

[7] = test system: HT-29 (Colorectal Carcinoma)
How it was run: as §1

[8] = test system: DB (B-Cell Non-Hodgkin's Lymphoma)
How it was run: as §1

[9] = test system: COR-L95 (Small Cell Lung Carcinoma)
How it was run: as §1

[10] = test system: DOV13 (Ovarian Carcinoma)
How it was run: as §1

[11] = test system: HCC2157 (Breast Carcinoma)
How it was run: as §1

[12] = test system: IGR-1 (Melanoma)
How it was run: as §1

[13] = test system: SW1783 (Low Grade Glioma)
How it was run: as §1

[14] = test system: SW780 (Bladder Carcinoma)
How it was run: as §1

[15] = test system: NCI-H1694 (Small Cell Lung Carcinoma)
How it was run: as §1

[16] = test system: SW1990 (Pancreatic Carcinoma)
How it was run: as §1

[17] = test system: COR-L23 (Non-Small Cell Lung Carcinoma)
How it was run: as §1

[18] = test system: MDA-MB-231 (Breast Carcinoma)
How it was run: as §1

[19] = test system: SW1088 (Low Grade Glioma)
How it was run: as §1

[20] = test system: NCI-H1793 (Lung Adenocarcinoma)
How it was run: as §1

SMILES | Bliss excess [1] | Bliss excess [2] | Bliss excess [3] | Bliss excess [4] | Bliss excess [5] | Bliss excess [6] | Bliss excess [7] | Bliss excess [8] | Bliss excess [9] | Bliss excess [10] | Bliss excess [11] | Bliss excess [12] | Bliss excess [13] | Bliss excess [14] | Bliss excess [15] | Bliss excess [16] | Bliss excess [17] | Bliss excess [18] | Bliss excess [19] | Bliss excess [20]
CCN(CCO)CCCOc1ccc2c(Nc3cc(CC(=O)Nc4cccc(F)c4)[nH]n3)ncnc2c1 [AZD2811] + O=C(c1cc(Cc2n[nH]c(=O)c3ccccc23)ccc1F)N1CCN(C(=O)C2CC2)CC1 [Olaparib] (first compound max 1 µM, 7x7, partner max 10 µM) | -0.0086 | -0.0589 | -0.0158 | 0.0032 | -0.0293 | -0.0181 | 0.0007 | -0.0544 | -0.0526 | -0.0824 | -0.0105 | -0.0059 | -0.0423 | 0.02 | 0.0406 | -0.0302 | -0.016 | -0.0175 | -0.0539 | -0.0264
CC1(C)CCC(CN2CCN(c3ccc(C(=O)NS(=O)(=O)c4ccc(NCC5CCOCC5)c([N+](=O)[O-])c4)c(Oc4cnc5[nH]ccc5c4)c3)CC2)=C(c2ccc(Cl)cc2)C1 [Venetoclax] + C[C@@H]1COCCN1C2=NC(=NC(=C2)C3(CC3)[S@](=N)(=O)C)C4=C5C=CNC5=NC=C4 [AZD6738] (first compound max 1 µM, 7x7, partner max 10 µM) | 0.0565 | -0.0272 | -0.0591 | -0.0736 | 0.0284 | -0.0278 | -0.0215 | 0.009 | -0.0056 | -0.001 | 0.0204 | 0.0165 | -0.0555 | -0.0299 | 0.0443 | -0.0556 | -0.0392 | -0.0312 | -0.0327 | 0.0073
CC(=O)c1c(C)c2cnc(Nc3ccc(N4CCNCC4)cn3)nc2n(C2CCCC2)c1=O [Palbociclib] + Cc1c2c(nn1C)CSCc1cc(n(C)n1)CSc1cc(c3ccccc3c1)OCCCc1c(C(=O)O)n(C)c3c-2c(Cl)ccc13 [AZD5991] (first compound max 10 µM, 7x7, partner max 1 µM) | 0.0147 | -0.021 | -0.0235 | -0.0423 | -0.0608 | -0.046 | 0.0058 | 0.0577 | -0.0112 | -0.0567 | -0.0106 | 0.0047 | -0.0248 | -0.0441 | -0.073 | -0.0427 | -0.0472 | -0.0424 | 0.0212 | -0.0299
CC1(C)CCC(CN2CCN(c3ccc(C(=O)NS(=O)(=O)c4ccc(NCC5CCOCC5)c([N+](=O)[O-])c4)c(Oc4cnc5[nH]ccc5c4)c3)CC2)=C(c2ccc(Cl)cc2)C1 [Venetoclax] + C1CN(CCC1(C(=O)N[C@@H](CCO)C2=CC=C(C=C2)Cl)N)C3=NC=NC4=C3C=CN4 [Capivasertib] (first compound max 1 µM, 7x7, partner max 3 µM) | 0.0346 | -0.0593 | -0.0649 | -0.0234 | -0.0811 | -0.0702 | -0.0325 | 0.0332 | 0.0145 | -0.0028 | -0.0055 | -0.0602 | -0.0494 | -0.0335 | -0.0418 | -0.064 | -0.0525 | -0.0443 | -0.0578 | -0.041
CN(C)CCCOc1ccc(-c2ccc3ncc4c(c3c2)n(C2CCOCC2)c(=O)n4C)cn1 [AZD0156] + C[C@@H]1COCCN1C2=NC(=NC(=C2)C3(CC3)[S@](=N)(=O)C)C4=C5C=CNC5=NC=C4 [AZD6738] (first compound max 1 µM, 7x7, partner max 10 µM) | -0.0082 | 0.0124 | 0.0068 | 0.067 | -0.0229 | -0.0423 | -0.0211 | -0.0151 | -0.0363 | -0.0395 | 0.0548 | -0.0032 | -0.0435 | -0.0372 | 0.0229 | -0.0202 | 0.045 | 0.0105 | -0.0113 | -0.0268
CC1(C)CCC(CN2CCN(c3ccc(C(=O)NS(=O)(=O)c4ccc(NCC5CCOCC5)c([N+](=O)[O-])c4)c(Oc4cnc5[nH]ccc5c4)c3)CC2)=C(c2ccc(Cl)cc2)C1 [Venetoclax] + CCN(CCO)CCCOc1ccc2c(Nc3cc(CC(=O)Nc4cccc(F)c4)[nH]n3)ncnc2c1 [AZD2811] (first compound max 1 µM, 7x7, partner max 1 µM) | 0.0968 | -0.0721 | -0.0407 | -0.0275 | 0.0061 | -0.0012 | 0.0012 | 0.0416 | 0.0474 | 0.0465 | -0.0305 | 0.0261 | -0.0192 | -0.007 | 0.0477 | 0.0024 | -0.0428 | -0.013 | -0.0469 | -0.0039
Cc1c2c(nn1C)CSCc1cc(n(C)n1)CSc1cc(c3ccccc3c1)OCCCc1c(C(=O)O)n(C)c3c-2c(Cl)ccc13 [AZD5991] + Cc1cc2ncnn2cc1Nc1ncc2c(n1)n(C1CCOCC1)c(=O)n2C [AZD7648] (first compound max 1 µM, 7x7, partner max 10 µM) | -0.0303 | 0.0206 | 0.002 | -0.0679 | -0.105 | -0.0397 | 0.0049 | -0.0087 | -0.0957 | -0.0025 | 0.0283 | -0.0642 | -0.0408 | -0.0193 | -0.0059 | -0.0398 | -0.0076 | -0.0397 | -0.0665 | -0.0112
CN(CCO)CC[C@H](CSc1ccccc1)Nc1ccc(S(=O)(=O)NC(=O)c2ccc(N3CCC([C@@H](O)c4ccccc4-c4ccc(Cl)cc4)CC3)cc2)cc1S(=O)(=O)C(F)(F)F [AZD4320] + C1CN(CCC1(C(=O)N[C@@H](CCO)C2=CC=C(C=C2)Cl)N)C3=NC=NC4=C3C=CN4 [Capivasertib] (first compound max 1 µM, 7x7, partner max 3 µM) | 0.0091 | 0.0261 | -0.0728 | -0.0571 | -0.0313 | -0.0693 | -0.0331 | -0.0196 | -0.0203 | 0.0131 | 0.0191 | -0.0557 | -0.119 | -0.053 | 0.0202 | -0.049 | -0.0254 | -0.0517 | 0.0242 | -0.0106
CC(=O)c1c(C)c2cnc(Nc3ccc(N4CCNCC4)cn3)nc2n(C2CCCC2)c1=O [Palbociclib] + Cn1cnc2c(F)c(Nc3ccc(Br)cc3Cl)c(C(=O)NOCCO)cc21 [Selumetinib] (first compound max 10 µM, 7x7, partner max 10 µM) | 0.0335 | 0.0533 | 0.0207 | 0.0461 | -0.0532 | -0.0398 | 0.0336 | -0.0167 | -0.0843 | -0.233 | -0.036 | 0.0661 | -0.0447 | -0.0008 | -0.0989 | -0.0228 | 0.0224 | 0.0613 | -0.0327 | -0.012
Cn1cnc2c(F)c(Nc3ccc(Br)cc3Cl)c(C(=O)NOCCO)cc21 [Selumetinib] + CCN(CCO)CCCOc1ccc2c(Nc3cc(CC(=O)Nc4cccc(F)c4)[nH]n3)ncnc2c1 [AZD2811] (first compound max 10 µM, 7x7, partner max 1 µM) | 0.0318 | -0.0526 | -0.0184 | 0.0816 | 0.0045 | -0.0383 | -0.0042 | -0.125 | -0.0075 | -0.0915 | 0.0194 | -0.007 | -0.0559 | -0.0198 | 0.0136 | -0.0292 | 0.0428 | 0.0107 | -0.0456 | -0.0302
CN(CCO)CC[C@H](CSc1ccccc1)Nc1ccc(S(=O)(=O)NC(=O)c2ccc(N3CCC([C@@H](O)c4ccccc4-c4ccc(Cl)cc4)CC3)cc2)cc1S(=O)(=O)C(F)(F)F [AZD4320] + C=CCn1c(=O)c2cnc(Nc3ccc(N4CCN(C)CC4)cc3)nc2n1-c1cccc(C(C)(C)O)n1 [AZD1775] (first compound max 1 µM, partner max 1 µM) | 0.0725 | -0.0381 | -0.0134 | -0.0048 | -0.003 | 0.0007 | 0.0055 | 0.0616 | 0.0519 | 0.0352 | -0.0386 | 0.146 | 0.0433 | 0.0079 | 0.0834 | 0.0307 | -0.006 | 0.0551 | 0.0064 | -0.0061
COc1nnc2ccc(N3CCC(c4ccc(OCCN5CCN(C)C(=O)[C@H]5C)cc4)CC3)nn12 [AZD5153] + CC1(C)CCC(CN2CCN(c3ccc(C(=O)NS(=O)(=O)c4ccc(NCC5CCOCC5)c([N+](=O)[O-])c4)c(Oc4cnc5[nH]ccc5c4)c3)CC2)=C(c2ccc(Cl)cc2)C1 [Venetoclax] (first compound max 1 µM, 7x7, partner max 1 µM) | -0.0678 | -0.0384 | -0.0442 | -0.0507 | -0.0599 | -0.0853 | -0.0288 | -0.0114 | 0.0382 | -0.0751 | 0.0328 | -0.0221 | -0.0347 | -0.0071 | 0.0045 | -0.0448 | -0.0504 | -0.0755 | -0.0439 | -0.0104
COc1nnc2ccc(N3CCC(c4ccc(OCCN5CCN(C)C(=O)[C@H]5C)cc4)CC3)nn12 [AZD5153] + Cc1c2c(nn1C)CSCc1cc(n(C)n1)CSc1cc(c3ccccc3c1)OCCCc1c(C(=O)O)n(C)c3c-2c(Cl)ccc13 [AZD5991] (first compound max 1 µM, 7x7, partner max 1 µM) | -0.0732 | 0.0004 | -0.0549 | -0.0105 | 0.0028 | 0.0087 | -0.0227 | 0.0507 | -0.0167 | -0.108 | 0.0049 | 0.0094 | -0.0024 | -0.0187 | 0.0992 | -0.0477 | -0.0296 | -0.057 | 0.0112 | -0.0484
COc1cccc(OCCCN)c1-c1cc(Nc2cnc(C#N)cn2)n[nH]1 [Prexasertib] + O=C(c1cc(Cc2n[nH]c(=O)c3ccccc23)ccc1F)N1CCN(C(=O)C2CC2)CC1 [Olaparib] (first compound max 1 µM, 7x7, partner max 10 µM) | -0.0087 | 0.0164 | -0.0666 | -0.149 | -0.0036 | -0.0849 | -0.0732 | -0.0327 | -0.121 | 0.0032 | -0.0113 | 0.0102 | -0.0344 | -0.009 | -0.0596 | -0.0617 | 0.0116 | -0.127 | -0.0707 | -0.0106
